“Also recorded” adds a separate entry of the source.
Columns and labels:
[1] = test system: S. cerevisiae; experiment: Two-color cDNA microarray expression profiling of mutant or compound-treated yeast cultures (300-experiment compendium) with hierarchical clustering; assay type: cell-based; conditions: for mutant in the affected pathway whose profile the profile caused by the inhibitory compound resembles / DNA-damage/S-phase arrest inducible RNR2, RNR3 and RNR4 transcripts: FIG. 9B; for clustering of treatment profile with profiles from cell wall related mutants gas1Δ, spf1Δ, and amp1Δ: FIG. 11A
Protocol: Experimental (mutant or chemically treated) cultures were grown, harvested and processed in parallel with corresponding wild-type or control cultures. A complete list of experimental conditions is provided, below, in Table 2.
Several colonies of similar size were picked from freshly-streaked YAPD agar plates into liquid Synthetic Complete medium (SC) with 2% glucose, grown overnight at 30° C. to mid-log phase, diluted to 0.4-1.0×10^6 cells/mL, and grown an addition 5-7 hours until reaching 0.4-1.0[…], at which point they were pelleted by centrifugation from 2 minutes at room temperature and frozen in liquid nitrogen. The final optical densities of experimental and control cultures were matched as closely as possible. For experiments involving treatments with chemical compounds (including doxycycline), compounds were added at the beginning of the 5-7 hour final groth phase, with equal amounts of solvent or doxycyline added to control cultures as appropriate. Total RNA was prepared by phenol:chloroform extraction followed by ethanol precipitation as described previously (see, e.g., Marton et al., 1998, Nat. Med. 4:1293-1301) except that the step vortexing with glass beads was replaced with a 10 minute incubation at 65° C. followed by 1 minute of vortexing. Poly-A+ RNA purification, cDNA labeling, microarray production, and microarray hybridization and washing were also done as previously described (e.g., in Marton et al., supra) with measurements taken in fluor-reversed pairs. Arrays were scanned, images were quantitated and physical artifacts such as dust and salt residue were edited as described previously (see, e.g., Marton et aL, supra). Resulting data files were evaluated by a series of quality-control criteria relating, first, to the image itself and, second, to known biological artifacts. For purposes of illustrating the impact of biases, experiments flagged as containing biological artifacts were noted by were not excluded from subsequent data analysis steps.
Clustering analysis of the perturbation response profiles was done as described, below, in Section 5.2.4. Specifically, the analysis comprised two steps. First, profiles and transcripts were selected from a data matrix and, second, experiments and responsive genes were grouped by agglomerative hierarchical clustering (see Hartigan, 1975, Clustering Algorithms, John Wiley & Sons, New York) where the similarity measure is the error-weighted correlation coefficient provided in Equation 11 below. Genes and experiments (i.e., columns and rows, respectively, of the data matrix) were then re-ordered according to the resulting clustering similarity trees. A statistical significance (i.e., a P-value) was also calculated for each bifurcation in the resulting cluster tree using the methods for determining statistical significance of cluster groups which are also described, below, in Section 5.2.4.
Using a two-color cDNA microarray hybridization assay (see, Schena et al., 1995, Science 270:467-470), three hundred expression profiles were generated in S. cerevisiae in which transcript levels of a mutant or compound-treated culture were compared to that of a wild-type or mock-treated culture. 276 deletion mutants, 11 tetracycline-regulatable alleles of essential genes (Gari et al., 1997, Yeast 13:837-848) and 13 well-characterized compounds were profile. Sixty-nine of the 276 deletions were of uncharacterized open reading frames (ORFs). To allow direct comparison of the behavior of all genes in response to all mutations and treatments, experiments were performed under a single condition: cells were grown at 30° C. in liquid synthetic complete SC) medium plus 2% glucose to mid-log phase, with the final optical densities of the experimental and control cultures closely matched (see Section 6.1 above). […]

[2] = test system: wild type yeast cells; conditions: levels that give maximal repression of promoter activity (10 micrograms/nil); cited from earlier work
[3] = target: T1, Erg2p, the sterol C-8 isomerase (Saccharomyces cerevisiae, UniProt P32352); experiment: Sterol profiles by gas chromatography of the nonsaponifiable fraction; assay type: cell-based, yeast; conditions: dyclonine-treated cells, FIG. 11F
T1 construct: endogenous in cells; host or cells: S. cerevisiae, Saccharomyces Genome Deletion Consortium strain background
T1 sequence (P32352 whole entry): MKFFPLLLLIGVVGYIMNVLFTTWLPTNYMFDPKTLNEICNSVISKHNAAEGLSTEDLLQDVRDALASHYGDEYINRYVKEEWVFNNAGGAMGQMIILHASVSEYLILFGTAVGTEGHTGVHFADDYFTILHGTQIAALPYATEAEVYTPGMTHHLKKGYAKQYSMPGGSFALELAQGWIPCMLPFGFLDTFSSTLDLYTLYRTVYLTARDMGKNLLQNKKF
Protocol: Sterols were identified using pure standards and on the basis of relative retention times. Nonsaponifiables were isolated from yeast as previously described (Molzahn and Woods, 1972, J Gen. Microbiol. 72:339-348). Gas chromatography (GC) analyses of the nonsaponifiable fraction were analyzed on a HP5890 series II GC equipped with the HP chemstation software. The capillary column (DB5) was 15 m×0.25 mm i.d., 0.2 μm film thickness and was programmed from 195 fC to 300 fC (195 fC for 3 min., 5.5 fC/min. to 300 fC then held for 10 min.). The linear velocity was 30 cm/s using nitrogen and the carrier gas and all injections were run in the splitless mode.

[4] = target: yeast Erg2 enzyme (Saccharomyces cerevisiae, UniProt P32352); conditions: cited from earlier work
Sequence of yeast Erg2 enzyme (P32352 whole entry): as above

Question: Which “mutant in the affected pathway whose profile the profile caused by the inhibitory compound resembles” value (from here on “mutant … by the inhibitory compound resembles”) [1] does the source give for `O=CC[C@@H](O)[C@H](O)[C@H](O)CO` [2-deoxy-D-glucose] here?
Answer: The value was “gas1”.

Question: And the “clustering of treatment profile with profiles from cell wall related mutants gas1Δ, spf1Δ, and amp1Δ” value (“clustering of treatment profile … and amp1Δ” below) [1]?
Answer: The value was “form a discrete cluster together with”.

Question: For `C/C=C1\NC(=O)[C@H]2CSSCC/C=C/[C@H](CC(=O)N[C@H](C(C)C)C(=O)N2)OC(=O)[C@H](C(C)C)NC1=O` [FR901,228], which “mutant … by the inhibitory compound resembles” value [1] is on record?
Answer: Its value is “rpd3”.

Question: With `COS(C)(=O)=O` [MMS] as the compound, how does the “DNA-damage/S-phase arrest inducible RNR2, RNR3 and RNR4 transcripts” value [1] read?
Answer: Its value is “induced”.

Question: With `C[C@@H]1C[C@@H]([C@H](O)CC2CC(=O)NC(=O)C2)C(=O)[C@@H](C)C1` [cycloheximide] as the compound, how does the “mutant … by the inhibitory compound resembles” value [1] read?
Answer: Its value is “yef3”.

Question: And the “clustering of treatment profile with ribosome subunit deletion profiles” value ([1]; all regulations greater than 1.5-fold masked, small regulations used as basis of clustering)?
Answer: The value was “this profile cluster gains additional translation-related experiments”.

Question: For `C[C@H]1c2cccc(O)c2C(=O)C2=C(O)[C@]3(O)C(=O)C(C(N)=O)=C(O)[C@@H](N(C)C)[C@@H]3[C@@H](O)[C@@H]21` [doxycycline], which “effect on the growth rate on wild type yeast cells” value [2] is on record?
Answer: Its value is “no significant effect”.

Question: For `CCCCOc1ccc(C(=O)CCN2CCCCC2)cc1` [dyclonine], which “expression profile of drug-treated yeast compared with the compendium profiles” value ([1]; six hour treatment with 0.063% dyclonine (FIG. 11E)) is on record?
Answer: The value was “correlates most closely with the response profile obtained from a cell line in which the erg2p gene has been “knocked out.”; also recorded: most closely resembled profiles resulting from perturbation of the ergosterol pathway”.

Question: And the “sterol accumulating in treated cells and enzyme inferred to be inhibited (GC analysis)” value [3]?
Answer: Its value is “buildup of fecosterol, indicating inhibition of Erg2p”.

Question: And the “sterol content of treated cells (GC analysis)” value [3]?
Answer: Its value is “abnormal”.

Question: For `N[C@H]1C(O)O[C@H](CO)[C@@H](O)[C@@H]1O` (stereo partly shown) [glucosamine], which “mutant … by the inhibitory compound resembles” value [1] is on record?
Answer: The value was “gas1”.

Question: What about the “clustering of treatment profile … and amp1Δ” value [1] of the same compound?
Answer: Its value is “form a discrete cluster together with”.

Question: Which “binding and inhibition of the yeast Erg2 enzyme” value [4] does the source give for `O=C(CCCN1CCC(O)(c2ccc(Cl)cc2)CC1)c1ccc(F)cc1` [haloperidol] here?
Answer: The value was “binds and inhibits”.

Question: For `NC(=O)NO` [hydroxyurea], which “DNA-damage/S-phase arrest inducible RNR2, RNR3 and RNR4 transcripts” value [1] is on record?
Answer: The value was “induced”.

Question: What about the “mutant … by the inhibitory compound resembles” value [1] of the same compound?
Answer: The value was “rnr1”.

Question: With `CCC(C)n1ncn(-c2ccc(N3CCN(c4ccc(OCC5COC(Cn6cncn6)(c6ccc(Cl)cc6Cl)O5)cc4)CC3)cc2)c1=O` (stereo not shown) [itraconzaole] as the compound, how does the “mutant … by the inhibitory compound resembles” value [1] read?
Answer: Its value is “erg/11”.

Question: For `CC[C@H](C)C(=O)O[C@H]1C[C@@H](C)C=C2C=C[C@H](C)[C@H](CC[C@@H]3C[C@@H](O)CC(=O)O3)[C@H]21` [lovastatin], which “correlation of transcript profile of compound treatment with profile of reduced expression of the target gene” value ([1]; FIG. 9E) is on record?
Answer: The value was “correlates highly with the profile produced by reducing expression of HMG2”.

Question: Which “mutant … by the inhibitory compound resembles” value [1] does the source give for tunicamycin here?
Answer: Its value is “gas1”.

Question: And the “clustering of treatment profile … and amp1Δ” value [1]?
Answer: Its value is “form a discrete cluster together with”.
